The NIST ThermoML archive (doi:10.1016/j.fluid.2007.06.010)
Numbers after ± are expanded uncertainties.

Experiment: refractive index (Na D-line) (dimensionless)
Settings: 298.15 K; 101.33 kPa; Liquid; Standard Abbe refractometry

Row | refractive index | SMILES
1 | 1.389 ± 0.0007 | CC(C)CC(C)(C)C [2,2,4-trimethylpentane]
2 | 1.373 ± 0.0007 | CCOC(C)(C)C [2-ethoxy-2-methylpropane]
3 | 1.5255 ± 0.0007 | c1ccsc1 [thiophene]

Row | SMILES | refractive index
4 | Cc1ccccc1 [toluene] | 1.494 ± 0.0007
